Where no end group is shown, it is not given here.
Columns and labels:
[1] = system: differentiated HL60 cells; experiment: [Ca2+]i increase in fura-2 loaded dHL60 cells; assay type: cell-based, human; conditions: for [Ca^2+]i: differentiated HL60 cells, fura-2, 1 μM of peptide
Description: (§1) U937 (human histiocytic lymphoma cells), HL60 (human promyelocytic leukemia cells), Raw 264.7 (mouse macrophage), Jurkat (human acute T cell leukemia), PC12 (rat adrenal pheochromocytoma cells), 3Y1 (Rat embryonic fibroblasts), 3T3L1 (preadipocytes), and NCI-H292 (human mucoepidermoid pulmonary carcinoma cells) were obtained from the American Type Culture Collection (Rockville, Md.) and maintained as recommended. FPR- or FPRL1 expressing RBL-2H3 cells were cultured as described previously (He et al. J. Immunol. 2000. 165: 4598-4605). Cells were maintained at about 1×10^6 cells/ml under standard incubator conditions (humidified atmosphere, 95% air, 5% CO2, at 37° C.). HL60 cells were induced to differentiate into the granulocyte phenotype by adding dimethylsulfoxide (DMSO) (final concentration 1.25%, v/v) for 4 days to the culture medium, as described previously (Itoh et al. Blood. 1998. 92: 1432-1441).
(§2) The level of [Ca^2+]i was determined using Grynkiewicz's method using fura-2/AM (Grynkiewicz et al. J. Biol. Chem. 1985. 260: 3440-3550). Briefly, prepared cells were incubated with 3 μM of fura-2/AM at 37° C. for 50 min in serum-free RPMI 1640 medium under continuous stirring. 2×10^6 cells were aliquoted for each assay in Ca^2+ free Locke's solution (154 mM NaCl, 5.6 mM KCl, 1.2 mM MgCl2, 5 mM HEPES, pH 7.3, 10 mM glucose, and 0.2 mM EGTA). Fluorescence changes were measured at the dual excitation wavelength of 340 nm and 380 nm, and the calculated fluorescence ratio was translated into [Ca^2+]i.

[2] = system: differentiated HL60 cells; experiment: Arachidonic acid (AA) release in [3H]AA-labeled dHL60 cells; assay type: cell-based, human; conditions: for AA release stimulating activity (in words) / Effect of cPLA2-specific inhibitors AACOCF3 and MAFP on peptide-induced AA release: dHL60 cells; for AA release stimulating activity (in words): 10 μM; for Effect of cPLA2-specific inhibitors AACOCF3 and MAFP on peptide-induced AA release: inhibitor pretreatment 15 min, 1 μM peptide; for Folds of increase (% of total), arachidonic acid release: differentiated HL60 cells, 10 μM of peptide
Description: as §1
For the initial screening of the PS-SPCLs, we measured the AA release stimulating activity of each peptide pool. Cultured dHL60 cells (10^7 cells/ml) were pre-labeled with 0.5 μCi/ml of (^3H)-AA in RPMI 1640 medium containing 10% FBS for 90 min at 37° C. in a humidified incubator supplied with 95% air and 5% CO2, as described previously (Bae et al. J. Immunol. 2000. 164: 4089-4096). The labeled cells were then washed twice with serum-free RPMI 1640 and incubated in RPMI 1640 medium containing 0.1% fatty acid-free BSA for 15 min at 37° C. After discarding the medium, the cells were stimulated with various concentrations of peptide for the indicated times. Radioactivity in the medium and of collected cells was determined with a liquid scintillation counter. When investigating the effects of inhibitors, cells were preincubated with the indicated concentrations of each inhibitor or vehicle for 15 min prior to stimulation.

[3] = system: undifferentiated HL60 cells; experiment: [Ca2+]i increase in undifferentiated HL60 cells; assay type: cell-based, human; conditions: for [Ca^2+]i increase in undifferentiated HL60 cells: peptides 10 μM (FIG. 8)
Description: as §1, §2

human monocytes = experiment: Chemotaxis assay (modified Boyden chamber), monocytes; assay type: cell-based; conditions: FIG. 6B; control peptide at concentrations less than 10 μM
Description: FIGS. 6A and 6B show chemotactic effect of peptides. Assays were performed using a modified Boyden chamber assay, as described in the Examples. Isolated human neutrophils (A) or monocytes (B) (1×10^6 cells/ml in serum free RPMI) were added to the upper wells of a 96-well chemotaxis chamber and migration across a 3 μm pore size (5 μm for monocytes) polycarbonate membrane was assessed after 2 hrs incubation at 37° C. The numbers of migrated cells were determined by counting them in a high power field (400×). Results are presented as means±S.E. of three independent experiments each performed in duplicate.
Chemotaxis assays were performed using multiwell chambers (Neuroprobe Inc., Gaithersburg, Md.) (Bae et al. Blood. 2001. 97: 2854-2862). Briefly, prepared human monocytes were suspended in RPMI at a concentration of 1×10^6 cells/ml, and 25 μl of the suspension was then placed onto the upper well of a chamber separated by a 5 μm polyhydrocarbon filter (3 μm pores size not polyvinylpyrrolidone coated, as is needed for neutrophils) from peptides or N-formyl-methionyl-leucyl-phenylalanine (fMLF) in the lower well. After incubation for 2 hours (90 minutes for neutrophils) at 37° C., non-migrated cells were removed by scraping, and cells that migrated across the filter were dehydrated, fixed, and stained with hematoxylin (Sigma, St. Louis, Mo.). Stained cells were counted in five randomly chosen high power fields (HPF) (400×) (Bae et al. Blood. 2001. 97: 2854-2862).

U937 cells = experiment: [Ca2+]i rise in U937 cells; assay type: cell-based, human; conditions: 10 μM (FIG. 5)
Description: as §1
as §2, with “2×10^6 cells were aliquoted for each assay in Ca^2+ free Locke's solution (154 mM NaCl, 5.6 mM KCl, 1.2 mM MgCl2, 5 mM HEPES, pH 7.3, 10 mM glucose, and 0.2 mM EGTA).” left out

Jurkat cells = experiment: [Ca2+]i rise in Jurkat cells; assay type: cell-based, human; conditions: 10 μM (FIG. 5)
Description: as §1
as §2, with “2×10^6 cells were aliquoted for each assay in Ca^2+ free Locke's solution (154 mM NaCl, 5.6 mM KCl, 1.2 mM MgCl2, 5 mM HEPES, pH 7.3, 10 mM glucose, and 0.2 mM EGTA).” left out

Monocytes = experiment: [Ca2+]i rise in monocytes; assay type: cell-based, human; conditions: 10 μM (FIG. 5)
Description: (§3) Peripheral blood leukocyte concentrates were donated by the Ulsan Red Cross Blood Center (Ulsan, Korea). PBMCs were separated on a Histopaque-1077 gradient. After two washings with HBSS without Ca^2+ and Mg^2+, the PBMCs were suspended in 10% FBS containing RPMI and incubated for 60 min at 37° C. to let the monocytes attach to the culture dish. Cells were washed 5 times with warmed RPMI medium to remove lymphocytes, and then the attached monocytes were collected, as described previously (Bae et al. J. Leukoc. Biol. 1999. 65: 241-248). Human neutrophils were isolated according to standard procedures; i.e., dextran sedimentation, hypotonic lysis of erythrocytes, and using a medium lymphocyte separation gradient, as described previously (Seo et al. J. Immunol. 1997. 158: 1895-1901). Isolated human leukocytes were then used promptly.
as §2, with “2×10^6 cells were aliquoted for each assay in Ca^2+ free Locke's solution (154 mM NaCl, 5.6 mM KCl, 1.2 mM MgCl2, 5 mM HEPES, pH 7.3, 10 mM glucose, and 0.2 mM EGTA).” left out

HUVEC = experiment: [Ca2+]i rise in HUVEC; assay type: cell-based; conditions: 10 μM
Description: as §2

PC12 = experiment: [Ca2+]i rise in PC12 cells; assay type: cell-based, rat; conditions: PC12, 10 μM
Description: as §1
as §2, with “2×10^6 cells were aliquoted for each assay in Ca^2+ free Locke's solution (154 mM NaCl, 5.6 mM KCl, 1.2 mM MgCl2, 5 mM HEPES, pH 7.3, 10 mM glucose, and 0.2 mM EGTA).” left out

3Y1 = experiment: [Ca2+]i rise in 3Y1 cells; assay type: cell-based, Rat; conditions: 3Y1, 10 μM
Description: as §1
as §2, with “2×10^6 cells were aliquoted for each assay in Ca^2+ free Locke's solution (154 mM NaCl, 5.6 mM KCl, 1.2 mM MgCl2, 5 mM HEPES, pH 7.3, 10 mM glucose, and 0.2 mM EGTA).” left out

NCI-H292 = experiment: [Ca2+]i rise in NCI-H292 cells; assay type: cell-based, human; conditions: NCI-H292, 10 μM
Description: as §1
as §2, with “2×10^6 cells were aliquoted for each assay in Ca^2+ free Locke's solution (154 mM NaCl, 5.6 mM KCl, 1.2 mM MgCl2, 5 mM HEPES, pH 7.3, 10 mM glucose, and 0.2 mM EGTA).” left out

neutrophils = experiment: [Ca2+]i rise in neutrophils; assay type: cell-based, human; conditions: 10 μM (FIG. 5)
Description: as §3
as §2, with “2×10^6 cells were aliquoted for each assay in Ca^2+ free Locke's solution (154 mM NaCl, 5.6 mM KCl, 1.2 mM MgCl2, 5 mM HEPES, pH 7.3, 10 mM glucose, and 0.2 mM EGTA).” left out

Raw 264.7 = experiment: [Ca2+]i rise in Raw 264.7 cells; assay type: cell-based, mouse; conditions: Raw 264.7, 10 μM (FIG. 5)
Description: as §1
as §2, with “2×10^6 cells were aliquoted for each assay in Ca^2+ free Locke's solution (154 mM NaCl, 5.6 mM KCl, 1.2 mM MgCl2, 5 mM HEPES, pH 7.3, 10 mM glucose, and 0.2 mM EGTA).” left out

Substance | [Ca^2+]i [1] [nM] | AA release stimulating activity (in words) [2] | Effect of cPLA2-specific inhibitors AACOCF3 and MAFP on peptide-induced AA release [2] | Folds of increase (% of total), arachidonic acid release [2] [folds] | [Ca^2+]i increase in undifferentiated HL60 cells [3] | Cellular chemotaxis in human monocytes (in words) (human monocytes) | [Ca^2+]i rise (U937 cells) | [Ca^2+]i rise (Jurkat cells) | [Ca^2+]i rise (Monocytes) | [Ca^2+]i rise (HUVEC) | Concentration of maximal activity, [Ca^2+]i increase ([1]; dHL60 cells, data not shown) | [Ca^2+]i rise (PC12) | [Ca^2+]i rise (3Y1) | [Ca^2+]i rise (NCI-H292) | Effect of PTX on peptide-stimulated calcium signaling ([3]; undifferentiated HL60 cells, data not shown) | [Ca^2+]i rise (neutrophils) | [Ca^2+]i rise (Raw 264.7)
MKYYKM-NH2 [Peptide P21] | 122 ± 15.7 | most potent | blocked | 2.86 ± 0.426 | did not affect | induced cellular chemotaxis | – | – | – | – | – | – | – | – | – | – | –
RKYHVM-NH2 [Peptide P14] | 85 ± 9.5 | most potent | blocked | 2.23 ± 0.403 | did not affect | induced cellular chemotaxis | – | – | – | – | – | – | – | – | – | – | –
MKYYYM-NH2 [Peptide P24] | 165 ± 23.4 | most potent | blocked | 2.93 ± 0.323 | dramatically induced | induced cellular chemotaxis | activated | not activated | activated | no response | approximately 3 μM | no response | no response | no response | partially inhibited | resulted in a [Ca^2+]i rise | not activated

From US7622551B2, “Leukocyte stimulating peptides” (POSCO, priority 2004, dated 2009)
